The source of these data is patent US11090318B2, “Wound healing promoter” (NAHLS CORPORATION CO., LTD., priority 2017, dated 2021).

Counter-ions that a name gives are not always drawn.

Experiment [1] deals with Mouse fetus-derived fibroblasts. In words: Gene expression in fibroblasts with or without TGF-β (real-time PCR). Type of experiment: cell-based. As to conditions: for PDLIM2 gene expression: 10 μg/mL, FIG. 6. The method, then: Mouse fetus-derived fibroblasts were spread or inoculated in a 10% FCS-containing Dulbecco's modified Eagle medium (DMEM) and cultured for 24 hours. The 10% FCS-containing DMEM was then removed, and a fresh DMEM devoid of FCS was added, followed by cultivation for further 24 hours. Next, the DMEM containing the cells was combined with Nahlsgen or D-AP6 obtained in Preparation Example 1 to a concentration of 10 μg/mL, cultured for 5 hours, further combined with TGF-β, and cultured for further 5 hours. After the cultivation, RNAs or proteins were recovered, and the quantities of MMP3, MMP9, MMP13, FGF, TGF-β, amphiregulin, PDLIM2, and hyaluronic acid (HSA2) were determined using the real-time PCR technique.
A general note: Real-time PCR tracks product formation cycle by cycle.

Experiment [2] deals with domestic dog affected by conjunctivitis. The experiment is described as follows: Eye drops in a domestic dog affected by conjunctivitis. Type of experiment: in vivo. Conditions: antibiotic alone by instillation twice a day for one year or longer, before preparation (6). The procedure:
The pharmaceutical preparation (6) was administered as drops to the eyes of a domestic dog affected by conjunctivitis, and 30 minutes later an antibiotic (cefmenoxime hydrochloride 0.5%) was administered as drops to the eyes. This process was repeated twice a day for 5 days.
The domestic dog had suffered from signs of dry eye syndrome and often undergone conjunctivitis resulting from bacterial infection.

The mark [3] stands for this setting: 10 μg/mL together with TGF-β, compared with TGF-β alone.
[4] abbreviates: substance added alone, Nahlsgen or D-AP6 10 μg/mL.

For `N[C@H](CCCCP(=O)(O)O)C(=O)O` [D-AP6, D-2-amino-6-phosphonohexanoic acid monohydrate], in experiment [1] (setting [3]), the “expression of FGF” value is “significantly increased the expression levels as compared with the addition of TGF-β alone”, the “expression of MMP3” value is “significantly increased the expression levels as compared with the addition of TGF-β alone”, the “expression of MMP9” value is “significantly increased the expression levels as compared with the addition of TGF-β alone” and the “expression of MMP13” value is recorded as “significantly increased the expression levels as compared with the addition of TGF-β alone”. In experiment [1] (setting [3]), the “expression of TGF-β” value is “significantly increased the expression levels as compared with the addition of TGF-β alone”, the expression of amphiregulin result is given as “significantly increased the expression levels as compared with the addition of TGF-β alone” and the “expression of hyaluronic acid” value is “significantly increased the expression levels as compared with the addition of TGF-β alone”. Also, in experiment [1], the PDLIM2 gene expression entry is recorded as “reduced PDLIM2 gene expression”. In experiment [1] (setting [4]), the “expression of FGF” value is listed as “approximately no change in the expression levels”, the “expression of MMP3” value is “approximately no change in the expression levels”, the “expression of MMP9” value is given as “approximately no change in the expression levels” and the “expression of MMP13” value is recorded as “approximately no change in the expression levels”. For the same compound, in experiment [1] (setting [4]), the “expression of TGF-β” value is on record as “approximately no change in the expression levels”, the expression of amphiregulin result was “approximately no change in the expression levels” and the “expression of hyaluronic acid” value is “approximately no change in the expression levels”.
For the compound `COP(=O)(CCC(N)C(=O)O)Oc1cccc(CC(=O)O)c1` (centres unmarked) [Nahlsgen], in experiment [1] (setting [3]), the “expression of FGF” value is “significantly increased the expression levels as compared with the addition of TGF-β alone”, the “expression of MMP3” value is recorded as “significantly increased the expression levels as compared with the addition of TGF-β alone”, the “expression of MMP9” value was “significantly increased the expression levels as compared with the addition of TGF-β alone” and the “expression of MMP13” value is “significantly increased the expression levels as compared with the addition of TGF-β alone”. In experiment [1] (setting [3]), the “expression of TGF-β” value is “significantly increased the expression levels as compared with the addition of TGF-β alone”, the expression of amphiregulin entry is “significantly increased the expression levels as compared with the addition of TGF-β alone” and the “expression of hyaluronic acid” value is given as “significantly increased the expression levels as compared with the addition of TGF-β alone”. For the same compound, the PDLIM2 gene expression entry in experiment [1] is reported as “reduced PDLIM2 gene expression”. For the same compound, in experiment [1] (setting [4]), the “expression of FGF” value was “approximately no change in the expression levels”, the “expression of MMP3” value is reported as “approximately no change in the expression levels”, the “expression of MMP9” value is “approximately no change in the expression levels” and the “expression of MMP13” value is “approximately no change in the expression levels”. In experiment [1] (setting [4]), the “expression of TGF-β” value is on record as “approximately no change in the expression levels”, the expression of amphiregulin result is on record as “approximately no change in the expression levels” and the “expression of hyaluronic acid” value is given as “approximately no change in the expression levels”.
For `CO/N=C(\C(=O)N[C@@H]1C(=O)N2C(C(=O)O)=C(CSc3nnnn3C)CS[C@H]12)c1csc(N)n1` [antibiotic, cefmenoxime hydrochloride], in experiment [2], the curative effects entry is given as “failed to enjoy curative effects”.
TGF-β [reference compound]: in experiment [1] (setting [4]), the “expression of FGF” value was “increased the expression”, the “expression of MMP3” value was “increased the expression”, the “expression of MMP9” value was “increased the expression” and the “expression of MMP13” value is “increased the expression”. Besides, in experiment [1] (setting [4]), the “expression of TGF-β” value is on record as “increased the expression”, the expression of amphiregulin result is listed as “increased the expression” and the “expression of hyaluronic acid” value is given as “increased the expression”.
